In US10307355B2, “N-aralkylcarbonyldiamine compounds and personal care compositions comprising the same” (Conopco, Inc., priority 2015, dated 2019):

Biological target: T1, human M3 receptor (Homo sapiens, UniProt P20309)
T1 construct: expressed in transfected cells; host or cells: CHO cells (membrane suspension)
Test: Muscarinic 3 receptor binding assay (3H-scopolamine displacement, CHO cell membranes)
Settings: inhibition of 3H-scopolamine binding to CHO cell suspension expressing the human M3 receptor
Experimental: The muscarinic 3 receptor binding assay was adapted from Perkin Elmer. […] Atropine (Sigma-Aldrich, St. Louis, Mo.) was used as a positive control. […] The binding reactions were terminated by filtering through the GFC plates and washing & filtering with ice-cold phosphate saline buffer (5×100 μL). Once the filters were dry, microscint scintillation cocktail (100 μL) was added to each well, allowed to sit for 20 min and the plates analyzed using a TopCount scintillation counter. […] Curve fitting of % inhibition versus concentration using Excell software allowed determination of IC50 values for test compounds.

T1 sequence (P20309 whole entry): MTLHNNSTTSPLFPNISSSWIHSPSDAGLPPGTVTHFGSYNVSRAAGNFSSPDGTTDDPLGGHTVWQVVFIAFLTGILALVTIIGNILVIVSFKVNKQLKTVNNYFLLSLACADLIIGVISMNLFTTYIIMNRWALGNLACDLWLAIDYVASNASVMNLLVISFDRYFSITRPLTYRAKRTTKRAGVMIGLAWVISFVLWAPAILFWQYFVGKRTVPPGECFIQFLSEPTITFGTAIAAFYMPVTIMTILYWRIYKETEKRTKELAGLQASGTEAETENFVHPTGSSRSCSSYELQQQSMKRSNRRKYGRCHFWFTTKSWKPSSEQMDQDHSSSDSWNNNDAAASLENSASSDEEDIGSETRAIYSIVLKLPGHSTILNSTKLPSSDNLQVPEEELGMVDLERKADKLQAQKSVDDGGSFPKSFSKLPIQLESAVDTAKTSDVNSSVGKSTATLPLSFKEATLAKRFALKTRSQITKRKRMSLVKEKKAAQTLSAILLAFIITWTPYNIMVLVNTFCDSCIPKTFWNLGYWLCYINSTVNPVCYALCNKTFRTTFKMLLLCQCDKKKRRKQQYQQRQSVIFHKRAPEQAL

CN(C)CCN(C)C(=O)C(c1ccccc1)C1CCCC1 (stereo not shown) [Compound 3c] was tested, and the IC50 was 3.3 µM.
